Data: publication PMC8160210, “Single tryptophan Y160W mutant of homooligomeric E. coli purine nucleoside phosphorylase implies that dimers forming the hexamer are functionally not equivalent” (Scientific Reports, 2021)
Where two headings read alike, the source gives them in different places.

What was measured:
Y160W mutant/Pi complex = target: T1, Y160W mutant/Pi complex (Escherichia coli, UniProt P0ABP8, Y161W); assay: Calorimetric (ITC) titrations with formycin A; design: species or system E. coli
T1 construct: made in house; host or cells: E. coli DH5α-T1
Protocol: (§1) The isothermal titration experiments were performed on the MicroCal iTC200 (Malvern) microcalorimeter. […] All experiments were carried out at 25°C. For the WT protein series of three calorimetric titrations, with protein concentration in the range of 70 to 800 μM, for the Y160W mutant series of four titration with protein concentration in the range of 300 μM to 1.3 mM were performed. Samples of each protein used for these series came from a single preparation. Ligand samples were 8–12 times more concentrated than the protein sample, in order to achieve a diverse ligand/protein molar ratio during titration and thus better explore binding curves. In some ITC experiments, in order to sample the lower plateau region more accurately, several initial points were measured with less ligand volume added at each step than used in the subsequent titration points measurements. An example of the ITC data is shown in the Supplementary Information (Figure S6). Raw thermograms were analysed with NITPIC[43]. Global analysis of titration curves was performed with Sedphat[20],[21].
(§2) Three models were taken into account in analysis of binding curves: model with one (first equation below), two (first two equations) and three binding sites. P+L⇔PLwithKd1PL+L⇔PLLwithKd2PLL+L⇔PLLLwithKd3
(§3) The model with one binding site is based on the assumption that all monomers are equivalent, and there is no cooperation between them. In the model with two binding sites the basic functional unit of the protein is a dimer, possible non-equivalence of binding sites or cooperativity between active sites in the dimer are taken into account (in the case of no cooperativity dissociation constants should be related statistically: Kd2 = 4Kd1), the dimers within hexamer are equivalent. The model with three binding sites is based on the crystallographic structures of binary and ternary complexes of PNP with ligands, where two of the dimers are in the “open-closed” conformation, but the third dimer is symmetrical, in the “open-open” conformation. Thus, active sites in the open conformation belonging to “open-closed” and “open-open” dimer may not be equivalent. This model takes into account possibility of cooperation between all monomers within a hexameric molecule of the protein (in the case of no cooperativity dissociation constants should be related statistically: Kd3 = 9Kd1, Kd2 = 3Kd1).
(§4) Titration series were analysed globally, always starting from the simplest, one-binding-site model. […] For all tested models the Akaike information criterion[23] was also calculated. Generally both criteria used in the discrimination analysis were pointing the same model as best describing the data. The only exception was thermophoretic titration of the WT protein with formycin A, and it is described in details in the Results. Analysed models were fitted to the raw data, whereas graphs presented in this study were prepared from the normalised data and the fitted curves. The parameters of the fit are dissociation constants and responses of the system. Responses are defined as changes in a measured physical quantity related to the formation of subsequent protein–ligand complexes: intrinsic protein fluorescence intensity, fluorescence intensity of the dye, heat and ellipticity for fluorimetric, thermophoretic, calorimetric and CD titrations, respectively. Responses are normalised for the protein concentration present in the titration, thus giving molar coefficients.

WT PNP/Pi complex = target: T2, WT PNP/Pi complex (Escherichia coli, UniProt P0ABP8); assay: Calorimetric (ITC) titrations with formycin A; design: species or system E. coli
T2 construct: made in house
Protocol: as §1, §2, §3, §4

Y160W PNP mutant = Y160W PNP mutant (Escherichia coli, UniProt P0ABP8, Y161W); assay: Fluorescence titrations with phosphate; design: made in house; host or cells: E. coli DH5α-T1; species or system E. coli; settings: three-binding-site model, 25 °C
Protocol: All experiments were carried out on the Perkin-Elmer LS55 spectrofluorimeter. Fluorescence spectra were registered using in each case (protein or protein–ligand complex) several excitation wavelengths. Differential spectra were calculated by subtracting spectrum of a protein from the spectrum of the appropriate complex. The negative differential fluorescence intensity means that a decrease of fluorescence upon complex formation is observed. Titrations of the enzyme with phosphate were registered using several excitation and observation wavelengths combinations. When selecting specific wavelengths for such a combination, two criteria were used: (1) the overall change in the fluorescence signal and (2) the complexity of the shape of the titration as the analysis of the multi-phasic curves is more explicit than a uni-phasic curve analysis.
Path length for the excitation was 2 mm and for the emission was 5 mm (half of the cuvette dimensions). A continuous stirring was used during titrations. All measurements were performed at 25 °C. […]
Fluorescence intensity of the WT protein is stable over time, but in the case of the Y160W mutant a slight quenching of fluorescence is observed during titration, which typically lasted about 30 min as the time between each point in the titration was 1 min. Furthermore, adding phosphate during titration stabilises the intrinsic fluorescence of the protein. […] Thus corrected binding curves, F^cor([Pi]), are given by the following equation, in which Fn([Pi]) is the fluorescence intensity measured for the phosphate concentration [Pi], and n is the number of a given titration point in the particular titration:4 FncorPi=FnPi+∑m=1naPim
To check its influence on the intrinsic protein fluorescence, titrations with NaCl were performed, giving dependence F(I). […] Titration curves of the WT protein with phosphate were therefore measured up to 100 mM ionic strength of solution, which is enough to observe a plateau. […] Both F^obs([Pi]) and F(I) were corrected for the time dependent fluorescence quenching, according to Eq. (4), prior to the F^bind([Pi]) calculation. […]

Structure (SMILES)	Kd (Y160W mutant/Pi complex; Kd1 ± SD, three-binding-site model, 50 mM phosphate, pH 7.6, 25 °C)	Kd (Y160W mutant/Pi complex; Kd3 ± SD, three-binding-site model, 50 mM phosphate, pH 7.6, 25 °C)	Kd (Y160W mutant/Pi complex; read-out: Kd2 ± SD, three-binding-site model, 50 mM phosphate, pH 7.6, 25 °C)	Kd (WT PNP/Pi complex; Kd1 ± SD, three-binding-site model, 50 mM phosphate, pH 7.6, 25 °C, values to be treated as estimates)	Kd (WT PNP/Pi complex; Kd3 ± SD, three-binding-site model, 50 mM phosphate, pH 7.6, 25 °C, values to be treated as estimates)	Kd (WT PNP/Pi complex; read-out: Kd2 ± SD, three-binding-site model, 50 mM phosphate, pH 7.6, 25 °C, values to be treated as estimates)	Kd (Y160W PNP mutant; 50 mM Tris/HCl pH 7.6, read-out: Kd1 ± SD)	Kd (Y160W PNP mutant; 50 mM Tris/HCl pH 7.6, read-out: Kd2 ± SD)	Kd (Y160W PNP mutant; 50 mM Tris/HCl pH 7.6, read-out: Kd3 ± SD)
Nc1ncnc2c([C@@H]3O[C@H](CO)[C@@H](O)[C@H]3O)[nH]nc12 [FA, Formycin A]	6.75 µM	655 µM	149 µM	8.9 µM	812 µM	55 µM	–	–	–
O=P(O)(O)O [Pi, Orthophosphate]	–	–	–	–	–	–	7 µM	200 µM	3200 µM
